This is an account of results in publication PMC8840742 (Molecules, 2022).

Test [1] has as its system SARS-CoV-2 B.1.617.2 (Indian or Delta variant). The experiment in a line: microbe, parasite or virus in culture. The note with it: Severe acute respiratory syndrome coronavirus 2, Vero C1008; VeroE6 cells in presence of P-gp inhibitor. Type of test: cell-based.
Test [2] relates to SARS-CoV-2 B.1.1.7 (UK or Alpha variant). The experiment in a line: microbe, parasite or virus in culture. In kind it is cell-based. The following applies: Severe acute respiratory syndrome coronavirus 2, Vero C1008; VeroE6 cells in presence of P-gp inhibitor.

Usually EC50 stands for the concentration giving half of the maximal effect.

With `c1ccc(CCN2CCC(Oc3ccccc3-c3nc(-c4ccncc4)no3)C2)cc1` (centres unmarked) [Compound 1, 5-(2-((1-Phenethylpyrrolidin-3-yl)oxy)phenyl)-3-(pyridin-4-yl)-1,2,4-oxadiazole], the results for the EC50 in test [1] and in test [2] were 4 ± 2 µM and 3000 ± 1000 nM, respectively.
